Measured values taken from patent publication US20240327463A1, “ANTIBACTERIAL PRODUCTS” (priority 2017, published 2024).
In brackets after ≈: the same amount, converted by molar mass. Bridge positions count the residues as written; N and C are the ends. Square brackets hold non-standard residues; d marks the D form. Peptide text beside a SMILES is read from it. I, II: the chains in the order shown. dNMeF = CN[C@H](Cc1ccccc1)C(=O)O

How the values were obtained:
[1] = system: E. coli; assay type: cell-based, Escherichia coli
Method: Bacteria were grown on Mueller Hinton broth (oxoid). All incubations were at 37° C. Dilutions were carried out using Mueller Hinton. […] This process was repeated up to well 11. […] This was repeated three times. […] Results are tabulated in the Examples.

[2] = system: A. baumannii; assay type: cell-based
How it was run: (§1)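 Values come from three repeat experiments. Growth and compound dilution both used Mueller Hinton broth, with the dilution series extended to well 11 and every incubation held at 37 °C.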

[3] = system: MRSA; assay type: cell-based, Staphylococcus aureus
How it was run: as §1

CC[C@@H](C)[C@@H](NC(=O)[C@@H](CCC(N)=O)NC(=O)[C@H](CCCCNC(=O)[C@H](CCCCN)NC(=O)[C@H](CCCCN)NC(=O)[C@H](CCCCN)NC(=O)[C@H](CCCCN)NC(=O)[C@H](CCCCN)NC(=O)[C@@H](N)CCCNC(=N)N)NC(=O)[C@@H](NC(=O)[C@@H](Cc1ccccc1)NC)[C@@H](C)CC)C(=O)N[C@H](C(=O)N[C@@H](CO)C(=O)N[C@H]1C(=O)N[C@@H](C)C(=O)N[C@@H](CC(C)C)C(=O)N[C@@H]([C@@H](C)CC)C(=O)O[C@H]1C)[C@@H](C)CC [Compound 54, Leu10-Teixobactin-3-(S3K-K5R) conjugate] (I: H-[dNMeF]IK[dQ][dI]IS[dT]ALI / II: H-RKKKKK; amide I:3-II:C; ester I:8-I:C)
MIC Ecoli [1]: 16 µg/mL (≈ 7.84 µM)
MIC A baumannii [2]: 2 µg/mL (≈ 0.981 µM)
MIC (MRSA) [3]: 8 µg/mL (≈ 3.92 µM)
